“And” between values parts separate entries of the source, which are not always exact repeats. Equal values may be shown once. Read-outs that look alike come from different tables or passages of the source.
Tests used:
[1] = tested on: breast cancer cells T47-D; experiment: Viability assay of breast cancer cells embedded in TissueSpec ECM hydrogels; format: cell-based, human; parameters: dose or concentration left out as unconfirmed; details: 72 hours, Bone, Liver, Lung ECM Hydrogels, Matrigel, plastic
Description: Methods. Viability assays were performed on breast cancer cells T47-D embedded in TissueSpec® Bone, Liver, and Lung ECM Hydrogels and treated with Tamoxifen (20 M and 40 M) or vehicle (DMSO) for 72 hours. Matrigel and plastic were used as control substrates.

[2] = tested on: MCF-7 and MB-231 breast cancer cells; details: previous studies; cited from earlier work
[3] = clinical trials; cited from earlier work
[4] = tested on: Human lung adenocarcinoma A549 cells; experiment: XTT cell viability / IC50 of anti-cancer drugs, A549 cells in 3D lung tumor model; format: cell-based; details: for IC50: 72 h drug
Description: (§1) Cell Expansion. […] Forming 3D Lung Tumor Model. […] Drug Treatment. […] After 72 hours, cell viability was assayed. […] Cell Proliferation Assay. […] Data Analysis.

[5] = tested on: Human lung adenocarcinoma Jacket cells; experiment: XTT cell viability / IC50 of anti-cancer drugs, Jacket cells in 3D lung tumor model; format: cell-based; details: for growth inhibition (cell viability): Jacket cells, doses 0.1-10 μM, 3D TissueSpec® Lung ECM Hydrogel and 2D plastic
Description: as §1

[6] = Diffusion assay through lung ECM hydrogel; format: physicochemical
Text: The difference in IC50 values of the three drugs in this study are attributable to the different cellular mechanism that each drug targets as well as expression of and access to each target. Erlotinib is an inhibitor of epidermal growth factor receptor (EGFR) tyrosine kinase, whereas Etoposide inhibits DNA topoisomerase II, which prevents DNA ligation and ultimately causes DNA strands to break. KPT-185 induces apoptosis as a selective inhibitor of nuclear export (SINE) compound. […] Another important consideration for drug testing in 3D culture systems is drug permeability through the ECM and cell membrane.

[7] = Jacket cells in TissueSpec® Lung ECM Hydrogel, reproducibility, two rounds, read-out: IC50 in two separate rounds of testing
[8] = Homo sapiens, A549, 72 h, A549 cells in Matrigel®
[9] = Homo sapiens, A549, 72 h, A549 cells in TissueSpec® Lung ECM Hydrogel (3D)
[10] = Homo sapiens, A549, 72 h, A549 cells on Plastic (no ECM), 2D
[11] = Homo sapiens, 72 h, Jacket cells in Matrigel®, 72 h drug, read-out: IC50
[12] = Homo sapiens, 72 h, Jacket cells in TissueSpec® Lung ECM Hydrogel (3D), 72 h drug, read-out: IC50
[13] = Homo sapiens, 72 h, Jacket cells on Plastic (no ECM), 2D, 72 h drug, read-out: IC50

## CC/C(=C(\c1ccccc1)c1ccc(OCCN(C)C)cc1)c1ccccc1 [tamoxifen, Tamoxifen]
[1]
  differential viability response by substrate: cells embedded in lung and bone ECM are more resistant than cells embedded in liver, matrigel or plastic

## COc1cccc2c1C(=O)c1c(O)c3c(c(O)c1C2=O)C[C@@](O)(C(=O)CO)C[C@@H]3O[C@H]1C[C@H](N)[C@H](O)[C@H](C)O1 [doxorubicin]
[2]
  resistance when cultured in Matrigel®: more resistant to doxorubicin when cultured in Matrigel®

## CNC(=O)c1cc(Oc2ccc(NC(=O)Nc3ccc(Cl)c(C(F)(F)F)c3)cc2)ccn1 [sorafenib]
[3]
  HCC patient plasma concentration: 2 mg/L and 4 μM

## COc1cc(-c2ncn(/C=C\C(=O)OC(C)C)n2)cc(C(F)(F)F)c1 [KPT-185]
[4]; A549 cells in Matrigel®
  IC50: 4.2 µM
[4]; A549 cells in TissueSpec® Lung ECM Hydrogel (3D)
  IC50: 2.3 µM
[4]; A549 cells on Plastic (no ECM), 2D
  IC50: 8.8 µM
[5]; Jacket cells in Matrigel®, 72 h drug, read-out: IC50
  IC50: 4.3 µM
[5]; Jacket cells in TissueSpec® Lung ECM Hydrogel (3D), 72 h drug, read-out: IC50
  IC50: 0.4 µM
[5]; [7]
  IC50: 0.4 µM
[5]; Jacket cells on Plastic (no ECM), 2D, 72 h drug, read-out: IC50
  IC50: 0.2 µM
[5]
  growth inhibition (cell viability): dose-dependent growth inhibition

## C#Cc1cccc(Nc2ncnc3cc(OCCOC)c(OCCOC)cc23)c1 [Erlotinib]
[4]; A549 cells, doses 0.1-10 μM, 3D TissueSpec® Lung ECM Hydrogel and plastic
  growth inhibition (cell viability): dose-dependent growth inhibition
[4]; [8]
  IC50: 57.5 µM
[4]; [9]
  IC50: 134 µM
[4]; [10]
  IC50: 36.4 µM
[5]; [11]
  IC50: 8.7 µM
[5]; [12]
  IC50: 7.5 µM
[5]; [13]
  IC50: 5.2 µM

## COc1cc([C@@H]2c3cc4c(cc3[C@@H](O[C@@H]3O[C@@H]5CO[C@@H](C)O[C@H]5[C@H](O)[C@H]3O)[C@H]3COC(=O)[C@H]23)OCO4)cc(OC)c1O [Etoposide]
[4]; [8]
  IC50: 35.5 µM
[4]; [9]
  IC50: 16.6 µM
[4]; [10]
  IC50: 40.3 µM
[5]; [11]
  IC50: 15.8 µM
[5]; [12]
  IC50: 3.7 µM
[5]; [13]
  IC50: 4.4 µM
[5]; Homo sapiens, Jacket cells in TissueSpec® Lung ECM Hydrogel, reproducibility, two rounds, read-out: IC50 in two separate rounds of testing
  IC50: 3.8 µM
[5]; Jacket cells in Matrigel®, reproducibility, two rounds, read-out: IC50 in two separate rounds of testing
  IC50: 0.7 µM
[5]; [7]
  IC50: 4 µM
[5]
  growth inhibition (cell viability): dose-dependent growth inhibition

## CC1=CC(C)(C)N(C)c2cc3[o+]c4cc5c(cc4c(-c4cc(NC(=O)c6ccc(CCl)cc6)ccc4C(=O)[O-])c3cc21)C(C)=CC(C)(C)N5C.CC1=CC(C)(C)N(C)c2cc3[o+]c4cc5c(cc4c(-c4ccc(NC(=O)c6ccc(CCl)cc6)cc4C(=O)[O-])c3cc21)C(C)=CC(C)(C)N5C [CellTracker Red CMTPX]
[6]
  diffusion speed through TissueSpec® Lung ECM Hydrogel: ≥ 1.3 mm/h

— patent publication US20240200003A1, “DEVICES AND METHODS FOR IN VITRO MODELING OF METASTATIC CANCER” (XYLYX BIO, INC., priority 2020, published 2024)
